Among the data in patent US20080275028A1 (priority 2004, published 2008) are EC50 values, retold here.

The test deals with T1, alpha7 nicotinic acetylcholine receptor (Rattus norvegicus, UniProt Q05941).
T1 construct: expressed in transfected cells
The experiment in a line: Functional FLIPR assay (calcium), alpha7 nAChR stably expressed in GH4C1 cells. The format is cell-based. The conditions noted are these: agonist, concentration range 0.001 to 30 microM.

What is called EC50 is the concentration giving half of the maximal effect.

The structures appear in SMILES notation.

T1 sequence (Q05941 23-502): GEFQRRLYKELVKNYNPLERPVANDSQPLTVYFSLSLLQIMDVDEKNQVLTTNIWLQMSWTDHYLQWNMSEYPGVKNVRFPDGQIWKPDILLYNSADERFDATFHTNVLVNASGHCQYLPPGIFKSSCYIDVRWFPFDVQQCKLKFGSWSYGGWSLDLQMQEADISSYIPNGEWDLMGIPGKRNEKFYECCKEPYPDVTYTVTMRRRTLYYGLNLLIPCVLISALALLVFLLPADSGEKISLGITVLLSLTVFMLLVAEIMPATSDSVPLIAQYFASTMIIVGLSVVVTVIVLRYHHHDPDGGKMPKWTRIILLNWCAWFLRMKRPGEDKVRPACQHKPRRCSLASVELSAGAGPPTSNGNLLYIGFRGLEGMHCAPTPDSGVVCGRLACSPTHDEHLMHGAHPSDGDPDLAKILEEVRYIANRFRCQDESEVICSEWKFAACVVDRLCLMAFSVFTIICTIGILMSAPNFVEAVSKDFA
Source text: Rat GH4C1 cells were then transfected with the rat receptor, cloned and analyzed for functional alpha7 nicotinic receptor expression employing a FLIPR assay to measure changes in intracellular calcium concentrations.
The FLIPR system allows the measurements of real time Ca^2+-concentration changes in living cells using a Ca^2+ sensitive fluorescence dye (such as Fluo4). This instrument enables the screening for agonists and antagonists for alpha 7 nAChR channels stably expressed in GH4C1cells.
GH4C1 cells stably transfected with rat-alpha7-nAChR (see above) were used. These cells are poorly adherent and therefore pretreatment of flasks and plates with poly-D-lysine was carried out. Cells are grown in 150 cm^2 T-flasks, filled with 30 ml of medium at 37° C. and 5% CO2.
EC50 and IC50 values were calculated using the IDBS XLfit4.1 software package employing a sigmoidal concentration-response (variable slope) equation:
Y=Bottom+((Top-Bottom)/(1+((EC50/X) ̂ HillSlope))
The compounds were tested using the functional FLIPR primary screening assay employing the stable recombinant GH4C1 cell line expressing the alpha7 nAChR. Hits identified were validated further by generation of concentration-response curves.

For `C[N+]1(C)CCN(c2ccccc2)CC1` [DMPP], the EC50 stood at 980 ± 470 nM.
